Converted amounts (≈) assume the structure as drawn. Square brackets hold non-standard residues; d marks the D form. Peptide text beside a SMILES is read from it. Nspe = C[C@H](NCC(=O)O)c1ccccc1; NDecylGly = CCCCCCCCCCNCC(=O)O; NPentylGly = CCCCCNCC(=O)O; Nlys = NCCCCNCC(=O)O
Legend:
[1] = system: Serratia marcescens ATCC 13880; type: cell-based; details: ATCC 13880
Description: (§1) Antibacterial assays. MICs were determined according to CLSI M7-A6 protocols in a 96-well microtiter plate. In test wells, 50 μL bacterial inoculum (5×10^5 CFU/ml) in Mueller-Hinton broth (MHB) was added to 50 μL peptoid solution in MHB (prepared by 1:2 serial dilutions). Positive controls contained 50 μL inoculum and 50 μL MHB without peptoid. […] MIC values reported were reproducible between three independent experimental replicates, each consisting of two parallel trials. Broad-spectrum antimicrobial susceptibility testing was performed against BSL2 pathogens by Nova Biologicals, Inc. (Conroe, Tex.).
(§2) Broad-spectrum antibacterial assays. MICs of compounds were determined by microdilution procedure in Mueller-Hinton broth (MHB) in accordance with CLSI M7-A6 protocols in a manner similar to that described for the screen antibacterial assays. Inoculated microtiter plates were incubated at 35° C. for 24 hours prior to the result being recorded. Four ATCC strains that were used as standards are recommended by CLSI: Pseudomonas aeruginosa ATCC 27853, Escherichia coli ATCC 25922, Staphylococcus aureus ATCC 29213 and Enterococcus faecalis ATCC 29212. Other strains from the ATCC collection include Proteus vulgaris ATCC 49132, Proteus mirabilis ATCC 35659, Klebsiella pneumoniae ATCC 33495, Enterobacter aerogenes ATCC 35029 and Serratia marcescens ATCC 13880. S. aureus NRS100 (COL) is a well characterized methicillian-resistant S. aureus (MRSA) strain. The strains S. aureus VAN1 and S. aureus VAN2, vancomycin-resistant MRSA strains that were isolated in Michigan and Pennsylvania, were the first vancomycin-resistant strains clinically isolated. S. aureus NRS119 and S. aureus NRS120 are linezolid-resistant isolates from the Network on Antimicrobial Resistance in S. aureus (NARSA) collection. E. faecalis 99 and E. faecium 106 are vancomycin-resistant enterococcal strains.

Enterococcus faecium 106 = type: cell-based; details: 106
Description: as §1, §2

[2] = system: Klebsiella pneumoniae ATCC 33495; type: cell-based; details: ATCC 33495
Description: as §1, §2

[3] = system: Staphylococcus aureus VAN1; type: cell-based; details: VAN1
Description: as §1, §2

[4] = system: Proteus mirabilis ATCC 35659; type: cell-based; details: ATCC 35659
Description: as §1, §2

[5] = system: Staphylococcus aureus NRS100 (COL); type: cell-based; details: NRS100 (COL)
Description: as §1, §2

[6] = system: Enterococcus faecalis ATCC 29212; type: cell-based; details: ATCC 29212
Description: as §1, §2

[7] = system: Staphylococcus aureus VAN2; type: cell-based; details: VAN2
Description: as §1, §2

[8] = system: Escherichia coli ATCC 25922; type: cell-based; details: ATCC 25922
Description: as §1, §2

[9] = system: Staphylococcus aureus NRS120; type: cell-based; details: NRS120
Description: as §1, §2

[10] = system: Proteus vulgaris ATCC 49132; type: cell-based; details: ATCC 49132
Description: as §1, §2

[11] = system: Pseudomonas aeruginosa ATCC 27853; type: cell-based; details: ATCC 27853
Description: as §1, §2

[12] = system: Staphylococcus aureus ATCC 29213; type: cell-based; details: ATCC 29213
Description: as §1, §2

[13] = system: Enterobacter aerogenes ATCC 35029; type: cell-based; details: ATCC 35029
Description: as §1, §2

Enterococcus faecalis 99 = type: cell-based; details: 99
Description: as §1, §2

[14] = system: Staphylococcus aureus NRS119; type: cell-based; details: NRS119
Description: as §1, §2

[15] = MTS assay, metabolic inhibition; type: cell-based, mouse
In short: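 NIH/3T3 cells seeded at 5,000 per well, grown a day, then exposed to serially diluted peptoids in HBSS together with MTS reagent. Absorbance at 490 nm read after 3 hours at 37° C.; mean of six replicates.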

human erythrocytes = assay: Hemolysis assay; type: cell-based
In short: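 Human erythrocytes from fresh heparinised blood, 20 vol % in PBS pH 7.4, mixed 1:1 with 2-fold serial peptoid dilutions; PBS as 0% and 0.2 vol % Triton X-100 as 100% hemolysis. Incubated 1 h at 37 °C, diluted, centrifuged 1200 g for 15 min; supernatant A350 read.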

B. subtilis (ATCC 6633) = type: cell-based; details: ATCC 6633
In short: (§3)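 MICs by broth microdilution per CLSI M7-A6 in cation-adjusted Mueller-Hinton broth, using 2:1 serial dilutions of peptoid and a bacterial inoculum of 1×10^6 CFU/mL. Values reproducible over three experiments, each with two parallel trials.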

E. coli (ATCC 35218) = type: cell-based; details: ATCC 35218
In short: as §3

[16] = system: Candida albicans (SC5314); type: cell-based, C. albicans; details: SC5314
Description: Additionally, in order to characterize possible antifungal activity, a library of alkylated compounds was tested against C. albicans, a representative fungal strain.
Antifungal Assays. MICs were determined using the broth microdilution assay given by CLSI M27-A2 protocols. Candida albicans (SC5314) was grown on Sabouraud dextrose agar for 24 hours at 30° C. Cells were suspended in 0.145 M saline, and the cell concentration was adjusted to 3×10^6 cells/mL. After adjusting the cell concentration, the suspension was diluted 1:1000 with RPMI 1640 (with L-glutamine and without sodium bicarbonate, Invitrogen) buffered with 0.145 M 3-(N-morpholino) propanesulfonic acid (MOPS). Two-fold serial dilutions of peptoids, peptides, and amphotericin B (Calbiochem) were prepared in RPMI 1640 and mixed with an equal volume of the cell suspension in 96-well plates. The final testing concentrations for the peptoids and peptides were 0.20 to 100 μM, and concentrations for amphotericin B were 0.031 to 16 μM. Growth controls and sterility controls were also included. Plates were incubated for 48 hours at 35° C., and growth of C. albicans was inspected visually to determine the MICs. The MIC for each compound was defined as the lowest concentration with no visible fungal growth. Experiments were performed in duplicate on two separate days.

E. coli = type: cell-based
Description: as §1
(§4) Screening antibacterial assays. MICs were determined in 96-well microtiter plates in accordance with CLSI M7-A6 protocols. Peptoid solutions with 50 μL total volume were prepared using 2:1 serial dilutions. 50 μL of bacteria inoculum (1×10^6 CFU/mL) prepared in cation-adjusted Mueller-Hinton broth (CAMHB) was added to test wells. Control wells contained 100 μL MHB (no growth) or 50 μL inoculums with 50 μL MHB with no peptoid. […] Reported values were reproducible over three experiments, each containing two parallel trials.

B. subtilis = type: cell-based
Description: as §1, §4

## C[C@@H](c1ccccc1)N(CC(N)=O)C(=O)CN(C(=O)CN(CCCCN)C(=O)[C@@H]1CCCN1C(=O)CN(C(=O)CN(CCCCN)C(=O)CN(C(=O)CN(C(=O)CN(CCCCN)C(=O)CN(C(=O)CN(C(=O)CNCCCCN)[C@@H](C)c1ccccc1)[C@@H](C)c1ccccc1)[C@@H](C)c1ccccc1)[C@@H](C)c1ccccc1)[C@@H](C)c1ccccc1)[C@@H](C)c1ccccc1 [1-Pro9, H-(Nlys-Nspe2)2-Nlys-Nspe-L-Pro-(Nlys-Nspe2)-NH2] (H-[Nlys][Nspe][Nspe][Nlys][Nspe][Nspe][Nlys][Nspe]P[Nlys][Nspe][Nspe]-NH2)
[1]
  MIC S. marcescens ATCC 13880: >128 µg/mL
  MIC Serratia marcescens ATCC 13880: >72.9 µM
Enterococcus faecium 106
  MIC Enterococcus faecium 106: 2.3 µM (≈ 4.04 µg/mL)
[2]
  MIC Klebsiella pneumoniae ATCC 33495: 9.1 µM (≈ 16 µg/mL)
[3]
  MIC Staphylococcus aureus VAN1: 4.6 µM (≈ 8.07 µg/mL)
[4]
  MIC P. mirabilis ATCC 35659: >128 µg/mL
  MIC Proteus mirabilis ATCC 35659: >72.9 µM
[5]
  MIC Staphylococcus aureus NRS100 (COL): 4.6 µM (≈ 8.07 µg/mL)
[6]
  MIC Enterococcus faecalis ATCC 29212: 4.6 µM (≈ 8.07 µg/mL)
[7]
  MIC Staphylococcus aureus VAN2: 4.6 µM (≈ 8.07 µg/mL)
[8]
  MIC Escherichia coli ATCC 25922: 4.6 µM (≈ 8.07 µg/mL)
[9]
  MIC Staphylococcus aureus NRS120: 9.1 µM (≈ 16 µg/mL)
[10]
  MIC Proteus vulgaris ATCC 49132: 36.5 µM (≈ 64.1 µg/mL)
[11]
  MIC Pseudomonas aeruginosa ATCC 27853: 18.2 µM (≈ 31.9 µg/mL)
[12]
  MIC Staphylococcus aureus ATCC 29213: 9.1 µM (≈ 16 µg/mL)
[13]
  MIC Enterobacter aerogenes ATCC 35029: 36.5 µM (≈ 64.1 µg/mL)
Enterococcus faecalis 99
  MIC Enterococcus faecalis 99: 36.5 µM (≈ 64.1 µg/mL)
[14]
  MIC Staphylococcus aureus NRS119: 9.1 µM (≈ 16 µg/mL)
[15]
  IC50: 24 µM
Human erythrocytes
  HD10: 165 µM
  HD50: > 200 µM
B. subtilis (ATCC 6633)
  B. subtilis MIC: 1.6 µM
E. coli (ATCC 35218)
  E. coli MIC: 12.5 µM

## CCCCCCCCCCNCC(=O)N(CCCCN)CC(=O)N(CC(=O)N(CC(=O)N(CCCCN)CC(=O)N(CC(=O)N(CC(=O)N(CCCCN)CC(=O)N(CC(=O)N(CC(N)=O)[C@@H](C)c1ccccc1)[C@@H](C)c1ccccc1)[C@@H](C)c1ccccc1)[C@@H](C)c1ccccc1)[C@@H](C)c1ccccc1)[C@@H](C)c1ccccc1 [C10-19 mer] (H-[NDecylGly][Nlys][Nspe][Nspe][Nlys][Nspe][Nspe][Nlys][Nspe][Nspe]-NH2)
[16]
  C. albicans MIC: 3.1 µM
Human erythrocytes
  HD10: 12 µM
  HD50: 40 µM
E. coli
  E. coli MIC: 6.3 µM
B. subtilis
  B. subtilis MIC: 3.1 µM

## CCCCCNCC(=O)N(CCCCN)CC(=O)N(CC(=O)N(CC(=O)N(CCCCN)CC(=O)N(CC(=O)N(CC(N)=O)[C@@H](C)c1ccccc1)[C@@H](C)c1ccccc1)[C@@H](C)c1ccccc1)[C@@H](C)c1ccccc1 [C5-16 mer] (H-[NPentylGly][Nlys][Nspe][Nspe][Nlys][Nspe][Nspe]-NH2)
[16]
  C. albicans MIC: 100 µM
Human erythrocytes
  HD10: >200/>200 μM
  HD50: >200/>200 μM
E. coli
  E. coli MIC: >200 µM
B. subtilis
  B. subtilis MIC: 3.1 µM

## CCCCCCCCCCNCC(=O)N(CCCCN)CC(=O)N(CC(=O)N(CC(=O)N(CCCCN)CC(=O)N(CC(=O)N(CC(=O)N(CCCCN)CC(=O)N(CC(=O)N(CC(=O)N(CCCCN)CC(=O)N(CC(=O)N(CC(N)=O)[C@@H](C)c1ccccc1)[C@@H](C)c1ccccc1)[C@@H](C)c1ccccc1)[C@@H](C)c1ccccc1)[C@@H](C)c1ccccc1)[C@@H](C)c1ccccc1)[C@@H](C)c1ccccc1)[C@@H](C)c1ccccc1 [C10-1] (H-[NDecylGly][Nlys][Nspe][Nspe][Nlys][Nspe][Nspe][Nlys][Nspe][Nspe][Nlys][Nspe][Nspe]-NH2)
[16]
  C. albicans MIC: 1.6 µM
Human erythrocytes
  HD10: 8 µM
  HD50: 27 µM
E. coli
  E. coli MIC: 12.5 µM
B. subtilis
  B. subtilis MIC: 1.6 µM

From US20100036088A1, “Selective poly-N-substituted glycine antibiotics” (priority 2008, published 2010)
